Key:
C. metallidurans CH34 = assay: Minimal Inhibitory Concentration (MIC) of Na3As04, wild type C. metallidurans CH34; assay type: cell-based, Cupriavidus metallidurans; conditions: Na3As04 0-1,000 mM, 28° C., 48 h, OD600
Description: After incubation at 28° C. for 48 h, the bacterial growth was measured by reading the absorbance at 600 nm (OD600) in a spectrophotometer.
The MIC of C. metallidurans CH34 and C. metallidurans CH34/pCM-As cells against As5+ ions were also studied. […] The MIC of Na3As04 for C. metallidurans CH34/pCM-As was above 1,000 mM, indicating an increase in survivability to As5+ ions above 100% (FIG. 11B). The bacterial growth for the MIC assays was quantified by Absorbance reading at 600 nm (FIG. 11C). The assays were performed in triplicate, showing similar results.

E. coli UT5600/pCM-As = assay: Minimal Inhibitory Concentration (MIC) of Na3As04, recombinant E. coli UT5600/pCM-As; assay type: cell-based, Escherichia coli; conditions: Na3As04 0-50 mM, 28° C., 48 h, OD600
Description: (§1) Panel C illustrates the comparison between the growth levels of E. coli wild type and recombinant cells in the presence of different concentrations of Na3As04 ranging from 0-50 mM. After incubation at 28° C. for 48 h, the bacterial growth was measured by reading the absorbance at 600 nm (OD600) in a spectrophotometer.
(§2) To find out whether the recombinant E. coli UT5600/pCM-As lineage had increased resistance to arsenate ions, as compared to the UT5600 lineage from which it is derived, the MIC against Na3As04 of each of the lineages was determined.
(§3) The final bacterial growth in different Na3As04 concentrations was quantified by Absorbance reading at 600 ηm (FIG. 10C). The assays were performed in triplicate, showing similar results.

E. coli UT5600 = assay: Minimal Inhibitory Concentration (MIC) of Na3As04, wild type E. coli UT5600; assay type: cell-based, Escherichia coli; conditions: Na3As04 0-50 mM, 28° C., 48 h, OD600
Description: as §1, §2, §3

sodium arsenate [Na3As04]
Minimum Inhibitory Concentration (MIC) (C. metallidurans CH34): 500 mM
Minimum Inhibitory Concentration (MIC) (E. coli UT5600/pCM-As): 50 mM
Minimum Inhibitory Concentration (MIC) (E. coli UT5600): 25 mM
